These results are taken from ChEMBL document CHEMBL4028815, “Novel phosphonate analogs of sulforaphane: Synthesis, in vitro and in vivo anticancer activity” (Eur J Med Chem, 2017).

Data set [1] relates to Mus musculus. Kind of data set: Toxicity in BALB/c mdb mouse implanted with mouse 4T1 cells assessed as RBC level at 100 umol/kg, ip administered five times weekly measured at 29 day post cell innoculum (reference value: 8.6 +/- 0.9 10^6/uL). The data set is classed as organism-based. Conditions: in vivo, 696 h.
In data set [2] the test system is LoVo/DX. Kind of data set: Cell cycle arrest in human LoVo/DX cells assessed as decrease in accumulation at G0/G1 phase at 15 uM after 24 hrs by propidium iodide staining based flow cytometric method. The data set is classed as functional. In general terms: A flow cytometer gives signals particle by particle.
Data set [3] concerns Mus musculus. Nature of the data set: Toxicity in BALB/c mdb mouse implanted with mouse 4T1 cells assessed as serum creatinine level at 100 umol/kg, ip administered five times weekly measured at 29 day post cell innoculum (reference value: 9.3 +/- 1.2 umol/L). Particulars: in vivo, 696 h. The data set is classed as organism-based.
Data set [4] relates to LoVo. Kind of data set: Induction of apoptosis in human LoVo cells assessed as increase in caspase3/7 activity at 15 uM using Ac-DEVD-ACC as substrate pretreated for 24 hrs followed by substrate addition measured for 2 hrs by fluorescence assay relative to control. The data set is classed as functional.
Data set [5] has as its system LoVo. Kind of data set: Induction of apoptosis in human LoVo cells assessed as late apoptotic cells at 15 uM after 24 hrs by APC-Annexin-V/propidium iodide staining based flow cytometric method relative to control. The data set is classed as functional.
Data set [6] concerns Mus musculus. Kind of data set: Nephrotoxicity in BALB/c mdb mouse implanted with mouse 4T1 cells assessed as kidney weight at 100 umol/kg, ip administered five times weekly measured at 29 day post cell innoculum (reference value: 0.136 +/- 0.006 g). Particulars: in vivo, 696 h. The data set is classed as toxicity, organism-based.
A short description of data set [7]: Induction of apoptosis in human LoVo/DX cells assessed as loss of mitochondrial membrane potential at 15 uM after 24 hrs by JC-1 staining based flow cytometric method relative to control. The data set is classed as functional.
In data set [8] the test system is LoVo. Nature of the data set: Induction of apoptosis in human LoVo cells assessed as increase in caspase3/7 activity at >15 uM using Ac-DEVD-ACC as substrate pretreated for 24 hrs followed by substrate addition measured for 2 hrs by fluorescence assay. The data set is classed as functional, cell-based.
Data set [9] relates to LoVo. Kind of data set: Induction of apoptosis in human LoVo cells assessed as loss of mitochondrial membrane potential at 15 uM after 24 hrs by JC-1 staining based flow cytometric method relative to control. The data set is classed as functional.

Activity calls are given as the source filed them. The calls are words filed in the database; no cut-off is given here.

For the compound `O=P(CCCCCCN=C=S)(Oc1ccccc1)Oc1ccccc1`, the Activity in data set [1] is 11.6 ×10⁶ /uL; in data set [3], 8.4 µmol/L; in data set [5], 54.6%; in data set [6], 0.143 g; in data set [7] it was 67%; in data set [9] it was 79.3%. Moreover, in data set [2], the outcome was Active. For the same compound, in data set [4], the “fold change (FC)” value stood at 6.8. The result in data set [8] was inactive.
